Laboratory results: paper PMC7008132 (European journal of medicinal chemistry, 2019)

Columns and labels:
[1] = target: human MDM2 (residues 1–118) (Homo sapiens, UniProt Q00987); experiment: Fluorescence polarization; settings: fluorescence polarization assay; qualitative statement
[2] = tested on: HCT 116 cells; experiment: FITC-Annexin V/propidium iodide apoptosis analysis; settings: HCT 116 (p53-wild-type); 72 h; Annexin V/PI flow cytometry
[3] = Stability of compound in solution; format: physicochemical; settings: while in solution
[4] = tested on: p53-wild-type SJSA-1 and U-2 OS cells; settings: 24 h treatment, nutlin-3a 5 μM positive control

CC(C)(C)NC(=O)C(c1cccc(Cl)c1)N(C=O)Cc1ccc(Cl)cc1 (stereo not shown) [compound 11, N-(tert-butyl)-2-(N-(4-chlorobenzyl)formamido)-2-(3-chlorophenyl)acetamide]
MDM2 binding activity in words [1]: no binding

CC(C)(C)NC(=O)[C@H](c1c(C(=O)O)[nH]c2cc(Cl)ccc12)N(C=O)Cc1ccc(OCc2ccccc2Br)cc1 [(−)-6m]
Induction of apoptosis [2]: induced apoptosis in p53-wild-type HCT 116 cells, comparable to nutlin-3a

Cn1c(C(=O)O)c(C(C(=O)NC(C)(C)C)N(C=O)Cc2ccc(OCc3ccccc3Br)cc2)c2ccc(Cl)cc21 (stereo not shown) [compound 9, 3-(1-(N-(4-((2-bromobenzyl)oxy)benzyl)formamido)-2-(tert-butylamino)-2-oxoethyl)-6-chloro-1-methyl-1H-indole-2-carboxylic acid]
MDM2 binding activity in words [1]: total loss of activity

CC(C)(C)NC(=O)C(c1c(C(=O)O)[nH]c2cc(Cl)ccc12)N(C=O)Cc1ccc(NCc2ccc(Br)cc2)cc1 (stereo not shown) [compound 8, 3-(2-(tert-butylamino)-1-(N-(4-((4-bromobenzyl)amino)benzyl)formamido)-2-oxoethyl)-6-chloro-1H-indole-2-carboxylic acid]
Stability in solution [3]: susceptible to degradation

COc1ccc(C2=N[C@@H](c3ccc(Cl)cc3)[C@@H](c3ccc(Cl)cc3)N2C(=O)N2CCNC(=O)C2)c(OC(C)C)c1 [Nutlin-3a]
Induction of MDM2 and p21 expression [4]: potent induction of MDM2 and p21

O=CN(Cc1ccc(OCc2ccc(F)cc2)cc1)C(C(=O)NC12CC3CC(CC(C3)C1)C2)c1c(C(=O)O)[nH]c2cc(Cl)ccc12 (stereo not shown) [compound 17, 3-(2-((3s,5s,7s)-adamantan-1-ylamino)-1-(N-(4-((4-fluorobenzyl)oxy)benzyl)formamido)-2-oxoethyl)-6-chloro-1H-indole-2-carboxylic acid]
MDM2 binding activity in words [1]: almost in loss of activity

CC(C)(C)NC(=O)C(c1ccc(Cl)cc1)N(C=O)Cc1ccc(OCc2ccc(Cl)c(Cl)c2)cc1 (stereo not shown) [compound 10, N-(tert-butyl)-2-(4-chlorophenyl)-2-(N-(4-((3,4-dichlorobenzyl)oxy)benzyl) formamido)acetamide]
MDM2 binding activity in words [1]: no binding
